# US20220347175A1, “PYRIDAZINONE DERIVATIVE” (Sumitomo Dainippon Pharma Co., Ltd., priority 2018, published 2022)
# Like-named read-outs stand apart in the source and are kept apart here.
# Biological target: T1, human Nav1.1 (Homo sapiens, UniProt P35498)
# T1 construct: host or cells: HEK293
# Test: Amplification of Nav1.1-derived voltage-dependent sodium current (Nav1.1 current), cell line stably expressing human Nav1.1, automated patch clamp
# Assay type: cell-based
# Method: Test 1: Evaluation of the Amplification of Nav1.1-Derived Voltage-Dependent Sodium Current (Nav1.1 Current) by Using a Cell Line Stably Expressing Human Nav1.1
# (1) Preparation of Test Compounds
# Test compounds were prepared by dissolving in DMSO at 200 times of the concentration at evaluation, and diluting the obtained solution to twice the concentration of evaluation with an extracellular fluid (135 mmol/L NaCl, 4 mmol/L KCl, 1 mmol/L MgCl2, 5 mmol/L CaCl2, 5 mmol/L Glucose, 10 mmol/L HEPES).
# (2) Induction and Measurement of Nav1.1 Current
# A HEK293 cell line stably expressing human Nav1.1 (cat #CYL3009, Millipore, USA, Human Embryonic Kidney 293) was purchased, and used in the present test. Nav1.1 current was induced by stimulating Ramp wave voltage. Detection of current which accompanied with the stimulation of voltage was carried out by a patch-clamp voltage-clamp method using HTS automated patch clamp system (SynchroPatch 768PE, Nanion Technologies GmbH, Germany). Only cells with more than 500 pA of voltage-dependent sodium channel current were used for the evaluation of the activity of compounds on Nav1.1 current because there was the possibility that currents derived from endogenous voltage-dependent sodium channels accounted for large proportion in cells with less than 500 pA of voltage-dependent sodium channel current which was induced by stimulating Ramp wave voltage.
# (3) Pharmacologic Effect on Nav1.1 Current
# The effect of test compounds on the amplification of Nav1.1-derived voltage-dependent sodium current was evaluated by using a cell line stably expressing human Nav1.1 and HTS automated patch clamp system. In other words, test compounds were added in an extracellular fluid containing 1% DMSO, and evaluated as a change of the peak value of Nav1.1 current and the area under the curve (AUC).
# (4) Method for Pharmacological Evaluation
# The Nav1.1 current amplification rates of test compounds were calculated by the following formula:
# Nav1.1 current amplification rate (%)=100×[the peak value of Nav1.1 current or the area under the curve after the addition of test compounds]/[the peak value of Nav1.1 current or the area under the curve before the addition of test compounds]−100
# [1] = 10 μmol/L compound (Test Result 5)
# [2] = Concentration 1 μM (Test Result 7), read-out: Nav1.1 current amplification rate (%)
# [3] = concentration of each compound 1 μmol/L (Test Result 6)
# [4] = compound 50 μmol/L, HEK293 stably expressing human Nav1.1
# [5] = concentration of each compound 1 μmol/L (Test Result 6), read-out: Nav1.1 current amplification rate (%)
# [6] = 10 μmol/L compound (Test Result 5), read-out: Nav1.1 current amplification rate (%)
# [7] = Concentration 10 μM (Test Result 7), read-out: Nav1.1 current amplification rate (%)
smiles,measurement,setting,value
N#Cc1ccc(NC(=O)Cn2nc(N3CCC4(CCCCC4)C3)ccc2=O)cc1 [Example 31],Nav1.1 current amplification rate (%),[1],220%
CC1CC=C(c2ccc(=O)n(CC(=O)Nc3ccc4ccncc4c3)n2)CC1 (stereo not drawn) [Example 544],activation at 1 µM,[2],208%
O=C(Cn1nc(-c2cc(Cl)cs2)ccc1=O)Nc1ccn2ccnc2c1 [Example 467],Nav1.1 current amplification rate (%),[3],80%
CC1CC=C(c2ccc(=O)n(CC(=O)Nc3cnc4ccccc4n3)n2)CC1 (stereo not drawn) [Example 548],activation at 1 µM,[2],41%
CC1CC=C(c2ccc(=O)n(CC(=O)Nc3ccnc(CO)c3)n2)CC1 (racemic) [Example 370],Nav1.1 current amplification rate (%),[1],35%
CN(c1ccc(=O)n(CC(=O)Nc2ccn3ncnc3c2)n1)C1CCCC1 [Example 556],activation at 1 µM,[2],13%
CC1CC=C(c2ccc(=O)n(CC(=O)NC3CN(c4ccccc4)C3)n2)CC1 (racemic) [Example 372],Nav1.1 current amplification rate (%),[1],52%
COCCCN1CC2(CCN(C(=O)Cn3nc(C4=CCC(C)CC4)ccc3=O)C2)C1 (racemic) [Example 308],Nav1.1 current amplification rate (%),[4],9%
CC1CC=C(c2ccc(=O)n(CC(=O)Nc3ccc(C4=CCN(C)C4)nc3)n2)CC1 (racemic) [Example 374],Nav1.1 current amplification rate (%),[1],18%
CC1CC=C(c2ccc(=O)n(CC(=O)N3CCc4c3ccnc4C3=CCN(C(=O)OC(C)(C)C)C3)n2)CC1 (racemic) [Example 280],Nav1.1 current amplification rate (%),[3],10%
CC1CC=C(c2ccc(=O)n(CC(=O)N3CCc4c(CN5CCCCC5)cccc43)n2)CC1 (racemic) [Example 282],Nav1.1 current amplification rate (%),[3],26%
Cc1cc2ncnn2cc1NC(=O)Cn1nc(C2=CCC(C)CC2)ccc1=O (racemic) [Example 351],Nav1.1 current amplification rate (%),[4],98%
CC1CC=C(c2ccc(=O)n(CC(=O)N3CCc4c3ccnc4C3=CCNC3)n2)CC1 (racemic) [Example 281],Nav1.1 current amplification rate (%),[1],40%
CC1CC=C(c2ccc(=O)n(CC(=O)N3CCc4nc(-c5cn[nH]c5)ccc43)n2)CC1 (racemic) [Example 289],Nav1.1 current amplification rate (%),[4],51%
CC1CC=C(c2ccc(=O)n(CC(=O)N3CC=C(c4ccccn4)C3)n2)CC1 (racemic) [Example 385],Nav1.1 current amplification rate (%),[4],42%
N#Cc1ccc(NC(=O)Cn2nc(N3CCC4(CC3)CC(F)(F)C4)ccc2=O)cc1 [Example 32],Nav1.1 current amplification rate (%),[1],60%
Cc1ccc(Oc2ccc(=O)n(CC(=O)N3CCc4c(-c5ccnnc5)cccc43)n2)cc1 [Example 529],activation at 1 µM,[5],43%
"CC1(C)CCC(c2ccc(=O)n(CC(=O)Nc3ccc(C#N)cc3)n2)CC1 [Example 38, N-(4-Cyanophenyl)-2-[3-(4,4-dimethylcyclohexyl)-6-oxopyridazin-1(6H)-yl]acetamide]",activation at 10 µM,[6],174%
Cc1cc2nc(NC(=O)Cn3nc(C4=CCC(C)CC4)ccc3=O)ccn2n1 (racemic) [Example 340],Nav1.1 current amplification rate (%),[4],41%
CC1CC=C(c2ccc(=O)n(CC(=O)N3CCc4c(CNCC(F)F)cccc43)n2)CC1 (racemic) [Example 312],Nav1.1 current amplification rate (%),[3],80%
Cc1ccc(-c2ccc(=O)n(CC(=O)Nc3ccn4ncnc4c3)n2)c(F)c1 [Example 566],activation at 1 µM,[2],98%
CC1CC=C(c2ccc(=O)n(CC(=O)Nc3ccc(C#N)cc3)n2)CC1 (stereo not drawn) [Example 41],Nav1.1 current amplification rate (%),[1],324%
CC1CCN(c2ccc(=O)n(CC(=O)N3CCN(c4ccccn4)CC3)n2)CC1 [Example 180],activation at 10 µM,[6],22%
N#Cc1ccc(NC(=O)Cn2nc(C3=CCCCO3)ccc2=O)cc1 [Example 48],Nav1.1 current amplification rate (%),[1],33%
N#Cc1ccc(NC(=O)Cn2nc(N3CCCC(C(N)=O)C3)ccc2=O)cc1 (stereo not drawn) [Example 8],Nav1.1 current amplification rate (%),[1],4%
O=C(Cn1nc(C2=CCCCC2)ccc1=O)Nc1ccn2ncnc2c1 [Example 495],activation at 1 µM,[5],28%
CC1CC=C(c2ccc(=O)n(CC(=O)N3CCN(c4ccn(C)n4)CC3)n2)CC1 (stereo not drawn) [Example 412],Nav1.1 current amplification rate (%),[4],36%
O=C(Cn1nc(C2=CCCCO2)ccc1=O)N1CCc2c(-c3ccnnc3)cccc21 [Example 525],activation at 10 µM,[6],18%
N#Cc1ccc(NC(=O)Cn2nc(N3CCCC(O)C3)ccc2=O)cc1 (stereo not drawn) [Example 7],Nav1.1 current amplification rate (%),[1],3%
CC1CC=C(c2ccc(=O)n(CC(=O)N3CCc4c(CNC5CCC5)cccc43)n2)CC1 (racemic) [Example 315],Nav1.1 current amplification rate (%),[3],19%
COC1CN(Cc2cncc(NC(=O)Cn3nc(C4=CCC(C)CC4)ccc3=O)c2)C1 (racemic) [Example 366],Nav1.1 current amplification rate (%),[4],37%
CC1CC=C(c2ccc(=O)n(CC(=O)N3CCN(Cc4ccncc4)CC3)n2)CC1 (racemic) [Example 392],Nav1.1 current amplification rate (%),[1],53%
CC1CC=C(c2ccc(=O)n(CC(=O)Nc3ccnc(-c4cnn(C)c4)c3)n2)CC1 (racemic) [Example 379],Nav1.1 current amplification rate (%),[1],147%
CN(c1ccc(=O)n(CC(=O)Nc2cnc3cccnc3c2)n1)C1CCCC1 [Example 564],activation at 10 µM,[7],73%
CC1CC=C(c2ccc(=O)n(CC(=O)Nc3ccc4ncnn4n3)n2)CC1 (racemic) [Example 350],Nav1.1 current amplification rate (%),[3],31%
CC1CCC(c2ccc(=O)n(CC(=O)Nc3ccc(C#N)cc3)n2)CC1 (stereo not drawn) [Example 43],Nav1.1 current amplification rate (%),[1],174%
N#Cc1ccc(NC(=O)Cn2nc(N3CCC(C(F)(F)F)CC3)ccc2=O)cc1 [Example 10],Nav1.1 current amplification rate (%),[1],124%
CC1(C)CC=C(c2ccc(=O)n(CC(=O)Nc3ccc(C#N)cc3)n2)CC1 [Example 42],Nav1.1 current amplification rate (%),[1],216%
CC(C)(C)C1CCN(c2ccc(=O)n(CC(=O)Nc3ccc(C#N)cc3)n2)CC1 [Example 6],Nav1.1 current amplification rate (%),[1],35%
CC1(C)CC=C(c2ccc(=O)n(CC(=O)Nc3ccn4ncnc4c3)n2)C1 [Example 496],activation at 1 µM,[5],37%
CC1CCC(c2ccc(=O)n(CC(=O)Nc3ccc(C#N)cc3)n2)CC1 (stereo not drawn) [Example 44],Nav1.1 current amplification rate (%),[1],59%
Cc1ccc(Oc2ccc(=O)n(CC(=O)Nc3ccn4ncnc4c3)n2)cc1 [Example 530],activation at 50 µM,"compound 50 μmol/L, HEK293 stably expressing human Nav1.1, read-out: Nav1.1 current amplification rate (%)",9%
CC1CC=C(c2ccc(=O)n(CC(=O)Nc3cncc(C4=COCCC4)c3)n2)CC1 (racemic) [Example 382],Nav1.1 current amplification rate (%),[3],13%
CC1CC=C(c2ccc(=O)n(CC(=O)Nc3ccc4nncn4c3)n2)CC1 (racemic) [Example 341],Nav1.1 current amplification rate (%),[4],202%
CC1CCN(c2nn(CC(=O)Nc3ccc(C#N)cc3)c(=O)c3c2CCCC3)CC1 [Example 36],Nav1.1 current amplification rate (%),[1],312%
N#Cc1ccc(NC(=O)Cn2nc(N3CCCCC3)ccc2=O)cc1 [Example 3],Nav1.1 current amplification rate (%),[1],40%
CC1CC=C(c2ccc(=O)n(CC(=O)Nc3ccnc(CN4CCOCC4)c3)n2)CC1 (racemic) [Example 373],Nav1.1 current amplification rate (%),[1],35%
CC1CC=C(c2ccc(=O)n(CC(=O)N3CCN(C4CCOCC4)CC3)n2)CC1 (stereo not drawn) [Example 411],Nav1.1 current amplification rate (%),[4],18%
N#Cc1ccc(NC(=O)Cn2nc(N3CCC(F)(F)CC3)ccc2=O)cc1 [Example 5],Nav1.1 current amplification rate (%),[1],6%
N#Cc1ccc(NC(=O)Cn2nc(C3CCC(F)(F)CC3)ccc2=O)cc1 [Example 47],Nav1.1 current amplification rate (%),[1],11%
CC1CC=C(c2ccc(=O)n(CC(=O)Nc3ccc4cccnc4c3)n2)CC1 (stereo not drawn) [Example 543],activation at 1 µM,[2],154%
CN(CC1CC1)c1ccc(=O)n(CC(=O)Nc2ccn3ncnc3c2)n1 [Example 559],activation at 10 µM,[7],34%
CC1CC=C(c2ccc(=O)n(CC(=O)N3CC=C(c4ccncc4)C3)n2)CC1 (racemic) [Example 387],Nav1.1 current amplification rate (%),[3],19%
Cc1c(NC(=O)Cn2nc(C3=CCC(C)CC3)ccc2=O)ccc2ncnn12 (racemic) [Example 353],Nav1.1 current amplification rate (%),[4],32%
CC1CC=C(c2ccc(=O)n(CC(=O)Nc3ccc4nccn4c3)n2)CC1 (racemic) [Example 343],Nav1.1 current amplification rate (%),[3],44%
CC1CC=C(c2ccc(=O)n(CC(=O)N3CCC(Oc4ccccc4)CC3)n2)CC1 (racemic) [Example 390],Nav1.1 current amplification rate (%),[1],50%
CC1CC(C)CN(c2ccc(=O)n(CC(=O)Nc3ccc(C#N)cc3)n2)C1 (stereo not drawn) [Example 15],Nav1.1 current amplification rate (%),[1],10%
O=C(Cn1nc(N2CCC3(CCC3)C2)ccc1=O)Nc1ccn2ncnc2c1 [Example 230],activation at 1 µM,[5],33%
CC1CC=C(c2ccc(=O)n(CC(=O)N3CC=C(c4ccccn4)CC3)n2)CC1 (stereo not drawn) [Example 420],Nav1.1 current amplification rate (%),[1],39%
Cc1ccc(-c2ccc(=O)n(CC(=O)Nc3cncnc3)n2)cc1 [Example 141],Nav1.1 current amplification rate (%),[1],46%
